By IC50 is commonly meant the midpoint of a concentration-inhibition curve.

The text below walks through data of patent publication US20160333043A1, “E-Selectin Antagonists Modified By Macrocycle Formation to the Galactose” (GLYCOMIMETICS, INC., priority 2014, published 2016).

The conditions of data set [1]: rcm bond, Grubbs 2nd generation catalyst, 25.0 °C.
For a further data set, the target named is T1, E-selectin (Homo sapiens, UniProt P16581).
T1 construct: fused on or other part: Immunoglobulin (Ig) part fused on as a handle for immobilising and dimerising
T1 sequence (P16581 22-175 limits assumed): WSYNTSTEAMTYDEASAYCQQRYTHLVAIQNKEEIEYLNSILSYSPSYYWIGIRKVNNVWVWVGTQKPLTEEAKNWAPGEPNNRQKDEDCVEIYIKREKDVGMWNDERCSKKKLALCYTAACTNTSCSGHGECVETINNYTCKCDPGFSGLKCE
Put plainly: E-selectin activity competitive binding assay (sLe^a polyacrylamide / streptavidin-HRP conjugate). The settings on record: immobilized E-selectin/Ig chimera; concentration required to inhibit sLe^a binding by 50%; absorbance 450 nm. An excerpt:
An inhibition assay may be used to screen for antagonists of E-selectin. For example, an assay may be performed to characterize the capability of a compound described herein to inhibit (i.e., reduce, block, decrease, or prevent in a statistically or biologically significant manner) interaction of E-selectin with sLe^a or sLe^x. The inhibition assay may be a competitive binding assay, which allows the determination of IC50 values. By way of example, E-selectin/Ig chimera may be immobilized onto a matrix (e.g., a multi-well plate, which may be made from a polymer, such as polystyrene; a test tube, and the like); a composition may be added to reduce nonspecific binding (e.g., a composition comprising non-fat dried milk or bovine serum albumin or other blocking buffer routinely used by a person skilled in the art); the immobilized E-selectin may be contacted with the candidate compound in the presence of sLe^a comprising a reporter group under conditions and for a time sufficient to permit sLe^a to bind to the immobilized E-selectin; the immobilized E-selectin may be washed; and the amount of sLe^a bound to immobilized E-selectin may be detected. Variations of such steps can be readily and routinely accomplished by a person of ordinary skill in the art.
The inhibition assay to screen and characterize glycomimetic antagonists of E-selectin is a competitive binding assay, from which IC50 values may be determined. E-selectin/Ig chimera was immobilized in 96 well microtiter plates by incubation at 37° C. for 2 hours. To reduce nonspecific binding, bovine serum albumin was added to each well and incubated at room temperature for 2 hours. The plate was washed and serial dilutions of the test compounds were added to the wells in the presence of conjugates of biotinylated, sLe^a polyacrylamide with streptavidin/horseradish peroxidase and incubated for 2 hours at room temperature.
To determine the amount of sLe^a bound to immobilized E-selectin after washing, the peroxidase substrate, 3,3′,5,5′ tetramethylbenzidine (TMB) was added. After 3 minutes, the enzyme reaction was stopped by the addition of H3PO4, and the absorbance of light at a wavelength of 450 nm was determined.

Where two headings read alike, the source gives them in different places.

In the case of `CC[C@H]1CCC[C@@H](O[C@@H]2O[C@@H]3COC(c4ccccc4)O[C@@H]3[C@@H]3O[C@@H](C(=O)OCc4ccccc4)CC=CCO[C@@H]23)[C@@H]1O[C@@H]1O[C@@H](C)[C@@H](OCc2ccccc2)[C@@H](OCc2ccccc2)[C@@H]1OCc1ccccc1` (stereo partly shown), the ring closure, yield of all isomers in data set [1] (from C=CCO[C@H]1[C@H](O[C@@H]2CCC[C@H](CC)[C@H]2O[C@@H]2O[C@@H](C)[C@@H](OCc3ccccc3)[C@@H](OCc3ccccc3)[C@@H]2OCc2ccccc2)O[C@@H]2COC(c3ccccc3)O[C@@H]2[C@@H]1O[C@H](CC=C)C(=O)OCc1ccccc1, 16.0 h) turned out to be 66%.
As for `COC(=O)C1CC=CCCO[C@H]2[C@H](O[C@@H]3CCC[C@H](C)[C@H]3O[C@@H]3O[C@@H](C)[C@@H](OCc4ccccc4)[C@@H](OCc4ccccc4)[C@@H]3OCc3ccccc3)O[C@H](COCc3ccccc3)[C@H](O)[C@@H]2O1` (stereo partly shown), in data set [1] (from C=CCCO[C@H]1[C@H](O[C@@H]2CCC[C@H](C)[C@H]2O[C@@H]2O[C@@H](C)[C@@H](OCc3ccccc3)[C@@H](OCc3ccccc3)[C@@H]2OCc2ccccc2)O[C@H](COCc2ccccc2)[C@H](O)[C@@H]1OC(CC=C)C(=O)OC, DCM, 2.0 h), the ring closure, yield of all isomers was 82.5%.
In data set [1] (from C=CCO[C@H]1[C@H](O[C@@H]2CCC[C@H](C)[C@H]2O[C@@H]2O[C@@H](C)[C@@H](OCc3ccccc3)[C@@H](OCc3ccccc3)[C@@H]2OCc2ccccc2)O[C@H](COCc2ccccc2)[C@H](O)[C@@H]1OC(CC=C)C(=O)OC, DCM, 5.25 mM, 2.0 h), `COC(=O)C1CC=CCO[C@H]2[C@H](O[C@@H]3CCC[C@H](C)[C@H]3O[C@@H]3O[C@@H](C)[C@@H](OCc4ccccc4)[C@@H](OCc4ccccc4)[C@@H]3OCc3ccccc3)O[C@H](COCc3ccccc3)[C@H](O)[C@@H]2O1` (stereo partly shown) displayed a ring closure, yield of all isomers of 86%.
In the case of `CC1O[C@@H](OC2[C@H](C)CCC[C@H]2O[C@@H]2OC(CO)[C@H](O)C3O[C@@H](C(=O)O)CCCCOC32)[C@@H](O)C(O)[C@@H]1O` (stereo partly shown) [Compound 18a], at E-selectin, the IC50 worked out at 15.2 µM.
The compound `CC1O[C@@H](OC2[C@H](C)CCC[C@H]2O[C@@H]2OC(CO)[C@H](O)C3O[C@@H](C(=O)O)CCCOC32)[C@@H](O)C(O)[C@@H]1O` (stereo partly shown) [Compound 25] returned an IC50 on E-selectin of 15.8 µM.
Same read-out and setting: as for `CC[C@@H]1CCC[C@@H](O[C@@H]2OC(CO)[C@H](O)C3O[C@@H](C(=O)O)CCCCOC32)C1O[C@@H]1OC(C)[C@@H](O)C(O)[C@@H]1O` (stereo partly shown) [Compound 39], the figure is 7.3 µM.
In the case of `CC[C@@H]1CCC[C@@H](O[C@@H]2OC(CO)[C@H](O)C3O[C@@H](C(=O)O)CCCOC32)C1O[C@@H]1OC(C)[C@@H](O)C(O)[C@@H]1O` (stereo partly shown) [Compound 47], the IC50 on E-selectin turned out to be 3.8 µM. Compared with the last compound, the IC50 is about 1.9-fold lower.
